The values below come from PubChem BioAssay (NCI).

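How tested: cells in 96-well plates exposed to compound for 48 hours at five concentrations. Definition used: TGI = concentration required for complete inhibition of growth.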 Bounds are passed on as bounds.

Some test systems named below: A498 renal; HCT-15 colon; LOX IMVI melanoma; MDA-MB-231 breast; SK-MEL-2 melanoma; SK-MEL-5 melanoma; T-47D breast; TK-10 renal; UO-31 renal; SR leukemia.
Holding throughout (assay): inhibition of tumour cell growth, NCI panel, 48 h

Take `N#CC1=C2Sc3ccccc3N2[C@H](c2ccccc2)[C@H]2COC(=O)[C@@H]12`: the TGI with A498 renal was greater than 100 µM; in the test on HCT-15 colon, greater than 100 µM; with LOX IMVI melanoma, 91.6 µM; with MDA-MB-231 breast, greater than 100 µM; with SK-MEL-2 melanoma it was greater than 100 µM; in the test with SK-MEL-5 melanoma, greater than 100 µM. The TGI with T-47D breast, in the test on TK-10 renal and in the test on UO-31 renal was greater than 100 µM each time.
Turning to `CCOC(=O)/C(O)=C1\C(=O)N(C)C(=O)C1c1ccc(OC)c(OC)c1` (stereo unspecified), the TGI in the test on A498 renal, with HCT-15 colon, in the test with LOX IMVI melanoma, in the test on SK-MEL-2 melanoma, with SK-MEL-5 melanoma and with UO-31 renal was greater than 100 µM in each case.
For `O=C1C(Br)=CC2([N+](=O)[O-])CCNc3c(O)c4c5c(c3C2=C1Br)=NCCC=5C=N4` (stereo unspecified), the TGI with A498 renal came out at 14.5 µM; with HCT-15 colon, 2.16 µM; with LOX IMVI melanoma it was 6.4 µM; in the test on SK-MEL-2 melanoma, 3.15 µM; in the test with SK-MEL-5 melanoma it was 1.33 µM; with UO-31 renal it was 22.9 µM.
For the molecule `CCCCCc1cc(OC(=O)c2c(O)cc(OC)cc2CCCCC)cc(O)c1C(=O)O`, the TGI in the test on A498 renal worked out at 35.6 µM; with HCT-15 colon, 30.7 µM; in the test on LOX IMVI melanoma, 33.1 µM; with SK-MEL-2 melanoma, 31.6 µM; in the test on SK-MEL-5 melanoma, 28.5 µM; in the test on TK-10 renal, 36.6 µM. The same molecule returned a TGI in the test with UO-31 renal of 26.6 µM.
As to `CCN1CC(C)Cn2c(=O)[nH]c3cc(Br)cc1c32` (stereo unspecified), the TGI with A498 renal is 80.3 µM; in the test with HCT-15 colon, greater than 100 µM; in the test on LOX IMVI melanoma it was greater than 100 µM; in the test with MDA-MB-231 breast, greater than 100 µM; in the test on SK-MEL-2 melanoma it was greater than 100 µM; in the test on SK-MEL-5 melanoma, greater than 100 µM. Besides, the TGI in the test on T-47D breast, with TK-10 renal and with UO-31 renal was greater than 100 µM each time.
For `O=C(c1ccc(Cl)cc1)c1ccc(OCC(=O)N2CCN(c3ccccc3)CC2)cc1`, the TGI was 78.9 µM in the test on A498 renal; greater than 100 µM in the test with HCT-15 colon; greater than 100 µM in the test on LOX IMVI melanoma; greater than 100 µM with SK-MEL-2 melanoma; greater than 100 µM in the test on SK-MEL-5 melanoma; greater than 100 µM in the test on SR leukemia. Also, the TGI in the test on TK-10 renal and in the test on UO-31 renal was greater than 100 µM throughout.
On to `COC(=O)C12Oc3ccc(-c4ccc5c(c4O)C(=O)C4=CCC(C)C(O)C4(C(=O)OC)O5)c(O)c3C(=O)C1=CCC(C)C2O` (stereo unspecified), for which the TGI in the test with A498 renal was 3.54 µM; in the test with HCT-15 colon it was 3.46 µM; with LOX IMVI melanoma it was 2.67 µM; in the test with SK-MEL-2 melanoma it was 2.82 µM; in the test with SK-MEL-5 melanoma it was 3.13 µM; with SR leukemia, greater than 100 µM. Also, the TGI was 5.24 µM in the test on TK-10 renal and 2.79 µM with UO-31 renal.
Take `COc1ccc2c3c1OC1CC(O)C=CC31CCN(C)C2` (stereo unspecified): the TGI in the test with A498 renal, with HCT-15 colon, in the test with LOX IMVI melanoma, in the test on SK-MEL-2 melanoma, with SK-MEL-5 melanoma and in the test with UO-31 renal was greater than 150 µM in each case.
For `CCC(C)[C@H](NC(=O)N[C@H](C)c1ccccc1)C(=O)OC` (stereo partly specified), the TGI in the test on A498 renal, with HCT-15 colon, with LOX IMVI melanoma, in the test on MDA-MB-231 breast, in the test with SK-MEL-2 melanoma and in the test with SK-MEL-5 melanoma was greater than 100 µM in each case. The TGI with SR leukemia, in the test with TK-10 renal and in the test with UO-31 renal was greater than 100 µM throughout.
On to `CC(=O)C1CC(C)=CCC12C(=O)Nc1ccccc12` (stereo unspecified), for which the TGI with A498 renal, with HCT-15 colon, with LOX IMVI melanoma, with SK-MEL-2 melanoma, in the test with SK-MEL-5 melanoma and in the test with TK-10 renal was greater than 100 µM in each case.
For the molecule `Oc1ccc(Cl)cc1C1=N/C(=N\CN2CCN(C/N=C3/N=C(c4cc(Cl)ccc4O)CC(c4ccccc4)N3)CC2)NC(c2ccccc2)C1` (stereo unspecified), the TGI with A498 renal, with HCT-15 colon, in the test with LOX IMVI melanoma, in the test on MDA-MB-231 breast, with SK-MEL-2 melanoma and with SK-MEL-5 melanoma was greater than 100 µM each time. Moreover, the TGI with SR leukemia, in the test on TK-10 renal and in the test with UO-31 renal was greater than 100 µM throughout.
As for `COc1cc(OC)c2c(O)cc(CC(C)O)cc2c1` (stereo unspecified), the TGI with A498 renal, in the test on HCT-15 colon, in the test on LOX IMVI melanoma, in the test on SK-MEL-2 melanoma, with SK-MEL-5 melanoma and in the test with SR leukemia was greater than 100 µM each time. Also, the TGI in the test with TK-10 renal and with UO-31 renal was greater than 100 µM in each case.
As for `COc1ccc(CCn2cnc3ccccc32)cc1`, the TGI with A498 renal, in the test on HCT-15 colon, with MDA-MB-231 breast, with SK-MEL-2 melanoma, with SK-MEL-5 melanoma and with SR leukemia was greater than 100 µM throughout. Moreover, the TGI in the test on TK-10 renal and in the test on UO-31 renal was greater than 100 µM throughout.
On to `CN(C)C(=S)N/N=C\C=N/NC(=S)N(C)C`, for which the TGI in the test with A498 renal was 34.5 µM; in the test with HCT-15 colon, greater than 100 µM; in the test on LOX IMVI melanoma, greater than 100 µM; in the test on MDA-MB-231 breast, greater than 100 µM; in the test with SK-MEL-2 melanoma it was greater than 100 µM; with SK-MEL-5 melanoma it was greater than 100 µM. Further, the TGI with T-47D breast, in the test on TK-10 renal and in the test on UO-31 renal was greater than 100 µM throughout.
Turning to `COC1=CC(=O)c2ccccc2C1(CCC=C(C)C)C1=NC(C)(C)CO1` (stereo unspecified), the TGI in the test on HCT-15 colon, in the test on SK-MEL-2 melanoma, with SK-MEL-5 melanoma, in the test with SR leukemia, in the test with TK-10 renal and with UO-31 renal was greater than 100 µM in each case.
Take `N/N=C(\C(=O)Nc1c(Cl)cc([N+](=O)[O-])cc1Cl)C(c1cnc2ccc([N+](=O)[O-])cc2n1)[N+](=O)[O-]` (stereo unspecified): the TGI in the test with A498 renal, with HCT-15 colon, with LOX IMVI melanoma, in the test on SK-MEL-2 melanoma, in the test on SK-MEL-5 melanoma and in the test with SR leukemia was greater than 100 µM each time. Besides, the TGI with TK-10 renal and in the test on UO-31 renal was greater than 100 µM each time.
For the molecule `CCC1C(=O)C[C@H]2[C@@H]3C(O)CC4=CC(=O)CC[C@]4(C)[C@H]3CC[C@]12C` (stereo partly specified), the TGI in the test with A498 renal, in the test with HCT-15 colon, in the test with LOX IMVI melanoma, in the test with MDA-MB-231 breast, with SK-MEL-2 melanoma and with SK-MEL-5 melanoma was greater than 50 µM in each case. Moreover, the TGI in the test with T-47D breast, in the test with TK-10 renal and in the test on UO-31 renal was greater than 50 µM in each case.
